Square brackets hold non-standard residues; d marks the D form. Peptide text beside a SMILES is read from it. * marks the point of attachment. Ala(1H-tetrazol-5-yl) = N[C@@H](Cc1nnn[nH]1)C(=O)O; Ms = CS(=O)(=O)*
Test: Peptide stability tests 2 and 3: Tris buffer pH 7.0, stored at 60° C., HPLC conditions 2
Format: physicochemical
Conditions: 100 μM peptide, Tris buffer pH 7.0, 60° C.; for survival rate after correction for water, 60° C., 2-week storage / survival rate after correction for water, 60° C., 2-week storage (Table 7-2): 2 weeks
Procedure, shortened: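 Peptides at 100 μM in Tris buffer pH 7.0, held 1 or 2 weeks at 60° C. An unstored sample served as standard. Water-corrected survival rate by HPLC on C18 at 40° C., 0.1% formic acid water/acetonitrile gradient, 220 nm detection.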

## CC[C@H](C)[C@H](NC(=O)CNC(=O)[C@H](Cc1nnn[nH]1)NC(=O)[C@H](CO)NC(=O)[C@H](Cc1c[nH]cn1)NC(C)=O)C(=O)N[C@@H](Cc1ccccc1)C(=O)N[C@H](C(=O)N[C@@H](Cc1nnn[nH]1)C(=O)N[C@@H](C)C(=O)N[C@@H](Cc1ccc(O)cc1)C(=O)N[C@@H](CO)C(=O)N[C@@H](CCCNC(=N)N)C(=O)N[C@@H](Cc1ccc(O)cc1)C(=O)N[C@@H](CCCNC(=N)N)C(=O)N[C@@H](CCCCN)C(=O)N[C@@H](CCC(N)=O)C(=O)N[C@@H](C)C(=O)N[C@@H](C)C(=O)N[C@H](C(=O)N[C@@H](CCCCN)C(=O)N[C@@H](CCCCN)C(=O)N[C@@H](Cc1ccc(O)cc1)C(=O)N[C@@H](CC(C)C)C(=O)N[C@@H](C)C(=O)N[C@@H](C)C(=O)N[C@H](C(=O)N[C@@H](CC(C)C)C(N)=O)C(C)C)C(C)C)[C@@H](C)O [Peptide 27] (Ac-HS[Ala(1H-tetrazol-5-yl)]GIFT[Ala(1H-tetrazol-5-yl)]AYSRYRKQAAVKKYLAAVL-NH2)
  survival rate after correction for water, 60° C., 1-week storage: 96.4%
  survival rate after correction for water, 60° C., 2-week storage: 93.5%

## CC[C@H](C)[C@H](NC(=O)CNC(=O)[C@H](Cc1nnn[nH]1)NC(=O)[C@H](CO)NC(=O)[C@H](Cc1c[nH]cn1)NC(C)=O)C(=O)N[C@@H](Cc1ccccc1)C(=O)N[C@H](C(=O)N[C@@H](Cc1nnn[nH]1)C(=O)N[C@@H](CO)C(=O)N[C@@H](Cc1ccc(O)cc1)C(=O)N[C@@H](CO)C(=O)N[C@@H](CCCNC(=N)N)C(=O)N[C@@H](Cc1ccc(O)cc1)C(=O)N[C@@H](CCCNC(=N)N)C(=O)N[C@@H](CCCCN)C(=O)N[C@@H](C)C(=O)N[C@@H](C)C(=O)N[C@@H](C)C(=O)N[C@H](C(=O)N[C@@H](CCCCN)C(=O)N[C@@H](CCCCN)C(=O)N[C@@H](Cc1ccc(O)cc1)C(=O)N[C@@H](CC(C)C)C(=O)N[C@@H](C)C(=O)N[C@@H](C)C(=O)N[C@H](C(=O)N[C@@H](CC(C)C)C(N)=O)C(C)C)C(C)C)[C@@H](C)O [Peptide 28] (Ac-HS[Ala(1H-tetrazol-5-yl)]GIFT[Ala(1H-tetrazol-5-yl)]SYSRYRKAAAVKKYLAAVL-NH2)
  survival rate after correction for water, 60° C., 1-week storage: 94.6%
  survival rate after correction for water, 60° C., 2-week storage: 90.5%

## CC[C@H](C)[C@H](NC(=O)CNC(=O)[C@H](Cc1nnn[nH]1)NC(=O)[C@H](CO)NC(=O)[C@H](Cc1c[nH]cn1)NS(C)(=O)=O)C(=O)N[C@@H](Cc1ccccc1)C(=O)N[C@H](C(=O)N[C@@H](Cc1nnn[nH]1)C(=O)N[C@@H](C)C(=O)N[C@@H](Cc1ccc(O)cc1)C(=O)N[C@@H](CO)C(=O)N[C@@H](CCCNC(=N)N)C(=O)N[C@@H](Cc1ccc(O)cc1)C(=O)N[C@@H](CCCNC(=N)N)C(=O)N[C@@H](CCCCN)C(=O)N[C@@H](CCC(N)=O)C(=O)N[C@@H](CC(C)C)C(=O)N[C@@H](C)C(=O)N[C@H](C(=O)N[C@@H](CCCCN)C(=O)N[C@@H](CCCCN)C(=O)N[C@@H](Cc1ccc(O)cc1)C(=O)N[C@@H](CC(C)C)C(=O)N[C@@H](C)C(=O)N[C@@H](C)C(=O)N[C@H](C(=O)N[C@@H](CC(C)C)C(N)=O)C(C)C)C(C)C)[C@@H](C)O [Peptide 29] (Ms-HS[Ala(1H-tetrazol-5-yl)]GIFT[Ala(1H-tetrazol-5-yl)]AYSRYRKQLAVKKYLAAVL-NH2)
  survival rate after correction for water, 60° C., 2-week storage (Table 7-2): 91.9%

## CC[C@H](C)[C@H](NC(=O)[C@H](C)NC(=O)[C@H](Cc1nnn[nH]1)NC(=O)[C@H](CO)NC(=O)[C@H](Cc1c[nH]cn1)NS(C)(=O)=O)C(=O)N[C@@H](Cc1ccccc1)C(=O)N[C@H](C(=O)N[C@@H](Cc1nnn[nH]1)C(=O)N[C@@H](CO)C(=O)N[C@@H](Cc1ccc(O)cc1)C(=O)N[C@@H](CO)C(=O)N[C@@H](CCCNC(=N)N)C(=O)N[C@@H](Cc1ccc(O)cc1)C(=O)N[C@@H](CCCNC(=N)N)C(=O)N[C@@H](CCCCN)C(=O)N[C@@H](CCC(N)=O)C(=O)N[C@@H](CC(C)C)C(=O)N[C@@H](C)C(=O)N[C@H](C(=O)N[C@@H](CCCCN)C(=O)N[C@@H](CCCCN)C(=O)N[C@@H](Cc1ccc(O)cc1)C(=O)N[C@@H](CC(C)C)C(=O)N[C@@H](C)C(=O)N[C@@H](C)C(=O)N[C@H](C(=O)N[C@@H](CC(C)C)C(N)=O)C(C)C)C(C)C)[C@@H](C)O [Peptide 30] (Ms-HS[Ala(1H-tetrazol-5-yl)]AIFT[Ala(1H-tetrazol-5-yl)]SYSRYRKQLAVKKYLAAVL-NH2)
  survival rate after correction for water, 60° C., 2-week storage (Table 7-2): 92.2%

## CC[C@H](C)[C@H](NC(=O)[C@H](C)NC(=O)[C@H](Cc1nnn[nH]1)NC(=O)[C@H](CO)NC(=O)[C@H](Cc1c[nH]cn1)NS(C)(=O)=O)C(=O)N[C@@H](Cc1ccccc1)C(=O)N[C@H](C(=O)N[C@@H](Cc1nnn[nH]1)C(=O)N[C@@H](CO)C(=O)N[C@@H](Cc1ccc(O)cc1)C(=O)N[C@@H](CO)C(=O)N[C@@H](CCCNC(=N)N)C(=O)N[C@@H](Cc1ccc(O)cc1)C(=O)N[C@@H](CCCNC(=N)N)C(=O)N[C@@H](CCCCN)C(=O)N[C@@H](CCC(N)=O)C(=O)N[C@@H](C)C(=O)N[C@@H](C)C(=O)N[C@H](C(=O)N[C@@H](CCCCN)C(=O)N[C@@H](CCCCN)C(=O)N[C@@H](Cc1ccc(O)cc1)C(=O)N[C@@H](CC(C)C)C(=O)N[C@@H](C)C(=O)N[C@@H](C)C(=O)N[C@H](C(=O)N[C@@H](CC(C)C)C(N)=O)C(C)C)C(C)C)[C@@H](C)O [Peptide 31] (Ms-HS[Ala(1H-tetrazol-5-yl)]AIFT[Ala(1H-tetrazol-5-yl)]SYSRYRKQAAVKKYLAAVL-NH2)
  survival rate after correction for water, 60° C., 2-week storage (Table 7-2): 90.1%

## CC[C@H](C)[C@H](NC(=O)[C@H](C)NC(=O)[C@H](Cc1nnn[nH]1)NC(=O)[C@H](CO)NC(=O)[C@H](Cc1c[nH]cn1)NC(C)=O)C(=O)N[C@@H](Cc1ccccc1)C(=O)N[C@H](C(=O)N[C@@H](Cc1nnn[nH]1)C(=O)N[C@@H](CO)C(=O)N[C@@H](Cc1ccc(O)cc1)C(=O)N[C@@H](CO)C(=O)N[C@@H](CCCNC(=N)N)C(=O)N[C@@H](Cc1ccc(O)cc1)C(=O)N[C@@H](CCCNC(=N)N)C(=O)N[C@@H](CCCCN)C(=O)N[C@@H](CCC(N)=O)C(=O)N[C@@H](C)C(=O)N[C@@H](C)C(=O)N[C@H](C(=O)N[C@@H](CCCCN)C(=O)N[C@@H](CCCCN)C(=O)N[C@@H](Cc1ccc(O)cc1)C(=O)N[C@@H](CC(C)C)C(=O)N[C@@H](C)C(=O)N[C@@H](C)C(=O)N[C@H](C(=O)N[C@@H](CC(C)C)C(N)=O)C(C)C)C(C)C)[C@@H](C)O [Peptide 32] (Ac-HS[Ala(1H-tetrazol-5-yl)]AIFT[Ala(1H-tetrazol-5-yl)]SYSRYRKQAAVKKYLAAVL-NH2)
  survival rate after correction for water, 60° C., 2-week storage (Table 7-2): 88.7%

## CC[C@H](C)[C@H](NC(=O)[C@H](C)NC(=O)[C@H](Cc1nnn[nH]1)NC(=O)[C@H](C)NC(=O)[C@H](Cc1c[nH]cn1)NC(C)=O)C(=O)N[C@@H](Cc1ccccc1)C(=O)N[C@H](C(=O)N[C@@H](Cc1nnn[nH]1)C(=O)N[C@@H](CO)C(=O)N[C@@H](Cc1ccc(O)cc1)C(=O)N[C@@H](CO)C(=O)N[C@@H](CCCNC(=N)N)C(=O)N[C@@H](Cc1ccc(O)cc1)C(=O)N[C@@H](CCCNC(=N)N)C(=O)N[C@@H](CCCCN)C(=O)N[C@@H](CCC(N)=O)C(=O)N[C@@H](C)C(=O)N[C@@H](C)C(=O)N[C@H](C(=O)N[C@@H](CCCCN)C(=O)N[C@@H](CCCCN)C(=O)N[C@@H](Cc1ccc(O)cc1)C(=O)N[C@@H](CC(C)C)C(=O)N[C@@H](C)C(=O)N[C@@H](C)C(=O)N[C@H](C(=O)N[C@@H](CC(C)C)C(N)=O)C(C)C)C(C)C)[C@@H](C)O [Peptide 33] (Ac-HA[Ala(1H-tetrazol-5-yl)]AIFT[Ala(1H-tetrazol-5-yl)]SYSRYRKQAAVKKYLAAVL-NH2)
  survival rate after correction for water, 60° C., 2-week storage (Table 7-2): 85.3%

## CC[C@H](C)[C@H](NC(=O)[C@H](C)NC(=O)[C@H](Cc1nnn[nH]1)NC(=O)[C@H](CO)NC(=O)[C@H](Cc1c[nH]cn1)NC(C)=O)C(=O)N[C@@H](Cc1ccccc1)C(=O)N[C@H](C(=O)N[C@@H](Cc1nnn[nH]1)C(=O)N[C@@H](CO)C(=O)N[C@@H](Cc1ccc(O)cc1)C(=O)N[C@@H](CO)C(=O)N[C@@H](CCCNC(=N)N)C(=O)N[C@@H](Cc1ccc(O)cc1)C(=O)N[C@@H](CCCNC(=N)N)C(=O)N[C@@H](CCCCN)C(=O)N[C@@H](C)C(=O)N[C@@H](C)C(=O)N[C@@H](C)C(=O)N[C@H](C(=O)N[C@@H](CCCCN)C(=O)N[C@@H](CCCCN)C(=O)N[C@@H](Cc1ccc(O)cc1)C(=O)N[C@@H](CC(C)C)C(=O)N[C@@H](C)C(=O)N[C@@H](C)C(=O)N[C@H](C(=O)N[C@@H](CC(C)C)C(N)=O)C(C)C)C(C)C)[C@@H](C)O [Peptide 34] (Ac-HS[Ala(1H-tetrazol-5-yl)]AIFT[Ala(1H-tetrazol-5-yl)]SYSRYRKAAAVKKYLAAVL-NH2)
  survival rate after correction for water, 60° C., 2-week storage (Table 7-2): 96.9%

Source: US12304932B2, “PACAP stabilized peptide” (SENJU PHARMACEUTICAL CO., LTD., priority 2017, dated 2025)
